# Key:
# [1] = test system: Mus musculus; assay: Toxicity in mouse L1210 cells implanted CDF1 mouse assessed as average weight gain at 12.8 mg/kg, ip single dose on day 1; type: organism-based; parameters: dose 12.8 mg/kg, route intraperitoneal; conditions: in vivo
# [2] = test system: Mus musculus; assay: Toxicity in mouse L1210 cells implanted CDF1 mouse assessed as average weight gain at 6.4 mg/kg, ip single dose on day 1; type: organism-based; parameters: dose 6.4 mg/kg, route intraperitoneal; conditions: in vivo
# [3] = test system: Mus musculus; assay: Toxicity in mouse L1210 cells implanted CDF1 mouse assessed as average weight gain at 3.2 mg/kg, ip single dose on day 1; type: organism-based; parameters: dose 3.2 mg/kg, route intraperitoneal; conditions: in vivo
# [4] = test system: Mus musculus; assay: Toxicity in mouse L1210 cells implanted CDF1 mouse assessed as average weight gain at 1.6 mg/kg, ip single dose on day 1; type: organism-based; parameters: dose 1.6 mg/kg, route intraperitoneal; conditions: in vivo
# [5] = test system: Mus musculus; assay: Toxicity in mouse L1210 cells implanted CDF1 mouse assessed as average weight gain at 0.8 mg/kg, ip single dose on day 1; type: organism-based; parameters: dose 0.8 mg/kg, route intraperitoneal; conditions: in vivo
# [6] = test system: Mus musculus; assay: Toxicity in mouse L1210 cells implanted CDF1 mouse assessed as average weight gain at 0.4 mg/kg, ip single dose on day 1; type: organism-based; parameters: dose 0.4 mg/kg, route intraperitoneal; conditions: in vivo
# [7] = test system: Mus musculus; assay: Toxicity in mouse L1210 cells implanted CDF1 mouse assessed as average weight gain at 0.2 mg/kg, ip single dose on day 1; type: organism-based; parameters: dose 0.2 mg/kg, route intraperitoneal; conditions: in vivo
# [8] = test system: Mus musculus; assay: Toxicity in mouse L1210 cells implanted CDF1 mouse assessed as average weight gain at 6.4 mg/kg, ip qd for 1 to 5 days; type: organism-based; parameters: dose 6.4 mg/kg, route intraperitoneal; conditions: in vivo
# [9] = test system: Mus musculus; assay: Toxicity in mouse L1210 cells implanted CDF1 mouse assessed as average weight gain at 3.2 mg/kg, ip qd for 1 to 5 days; type: organism-based; parameters: dose 3.2 mg/kg, route intraperitoneal; conditions: in vivo
# [10] = test system: Mus musculus; assay: Toxicity in mouse L1210 cells implanted CDF1 mouse assessed as average weight gain at 1.6 mg/kg, ip qd for 1 to 5 days; type: organism-based; parameters: dose 1.6 mg/kg, route intraperitoneal; conditions: in vivo
# [11] = test system: Mus musculus; assay: Toxicity in mouse L1210 cells implanted CDF1 mouse assessed as average weight gain at 0.8 mg/kg, ip qd for 1 to 5 days; type: organism-based; parameters: dose 0.8 mg/kg, route intraperitoneal; conditions: in vivo
# [12] = test system: Mus musculus; assay: Toxicity in mouse L1210 cells implanted CDF1 mouse assessed as average weight gain at 0.4 mg/kg, ip qd for 1 to 5 days; type: organism-based; parameters: dose 0.4 mg/kg, route intraperitoneal; conditions: in vivo
# [13] = test system: Mus musculus; assay: Toxicity in mouse L1210 cells implanted CDF1 mouse assessed as average weight gain at 0.2 mg/kg, ip qd for 1 to 5 days; type: organism-based; parameters: dose 0.2 mg/kg, route intraperitoneal; conditions: in vivo
# [14] = test system: Mus musculus; assay: Toxicity in mouse L1210 cells implanted CDF1 mouse assessed as survivors on day 5 at 25.6 mg/kg, ip single dose on day 1; type: organism-based; parameters: dose 25.6 mg/kg, route intraperitoneal; conditions: in vivo
# [15] = test system: Mus musculus; assay: Toxicity in mouse L1210 cells implanted CDF1 mouse assessed as survivors on day 5 at 12.8 mg/kg, ip single dose on day 1; type: organism-based; parameters: dose 12.8 mg/kg, route intraperitoneal; conditions: in vivo
# [16] = test system: Mus musculus; assay: Toxicity in mouse L1210 cells implanted CDF1 mouse assessed as survivors on day 5 at 6.4 mg/kg, ip single dose on day 1; type: organism-based; parameters: dose 6.4 mg/kg, route intraperitoneal; conditions: in vivo
# [17] = test system: Mus musculus; assay: Toxicity in mouse L1210 cells implanted CDF1 mouse assessed as survivors on day 5 at 3.2 mg/kg, ip single dose on day 1; type: organism-based; parameters: dose 3.2 mg/kg, route intraperitoneal; conditions: in vivo
# [18] = test system: Mus musculus; assay: Toxicity in mouse L1210 cells implanted CDF1 mouse assessed as survivors on day 5 at 1.6 mg/kg, ip single dose on day 1; type: organism-based; parameters: dose 1.6 mg/kg, route intraperitoneal; conditions: in vivo
# [19] = test system: Mus musculus; assay: Toxicity in mouse L1210 cells implanted CDF1 mouse assessed as survivors on day 5 at 0.8 mg/kg, ip single dose on day 1; type: organism-based; parameters: dose 0.8 mg/kg, route intraperitoneal; conditions: in vivo
# [20] = test system: Mus musculus; assay: Toxicity in mouse L1210 cells implanted CDF1 mouse assessed as survivors on day 5 at 0.4 mg/kg, ip single dose on day 1; type: organism-based; parameters: dose 0.4 mg/kg, route intraperitoneal; conditions: in vivo
# [21] = test system: Mus musculus; assay: Toxicity in mouse L1210 cells implanted CDF1 mouse assessed as survivors on day 5 at 0.2 mg/kg, ip single dose on day 1; type: organism-based; parameters: dose 0.2 mg/kg, route intraperitoneal; conditions: in vivo
# [22] = test system: Mus musculus; assay: Toxicity in mouse L1210 cells implanted CDF1 mouse assessed as survivors on day 5 at 6.4 mg/kg, ip qd for 1 to 5 days; type: organism-based; parameters: dose 6.4 mg/kg, route intraperitoneal; conditions: in vivo
# [23] = test system: Mus musculus; assay: Toxicity in mouse L1210 cells implanted CDF1 mouse assessed as survivors on day 5 at 3.2 mg/kg, ip qd for 1 to 5 days; type: organism-based; parameters: dose 3.2 mg/kg, route intraperitoneal; conditions: in vivo
# [24] = test system: Mus musculus; assay: Toxicity in mouse L1210 cells implanted CDF1 mouse assessed as survivors on day 5 at 1.6 mg/kg, ip qd for 1 to 5 days; type: organism-based; parameters: dose 1.6 mg/kg, route intraperitoneal; conditions: in vivo
# [25] = test system: Mus musculus; assay: Toxicity in mouse L1210 cells implanted CDF1 mouse assessed as survivors on day 5 at 0.8 mg/kg, ip qd for 1 to 5 days; type: organism-based; parameters: dose 0.8 mg/kg, route intraperitoneal; conditions: in vivo
# [26] = test system: Mus musculus; assay: Toxicity in mouse L1210 cells implanted CDF1 mouse assessed as survivors on day 5 at 0.4 mg/kg, ip qd for 1 to 5 days; type: organism-based; parameters: dose 0.4 mg/kg, route intraperitoneal; conditions: in vivo
# [27] = test system: Mus musculus; assay: Toxicity in mouse L1210 cells implanted CDF1 mouse assessed as survivors on day 5 at 0.2 mg/kg, ip qd for 1 to 5 days; type: organism-based; parameters: dose 0.2 mg/kg, route intraperitoneal; conditions: in vivo
# [28] = test system: L1210; assay: Antitumor activity against mouse L1210 cells implanted in CDF1 mouse at 0.2 mg/kg, ip qd for 1 to 5 days relative to control; type: functional; conditions: route intraperitoneal
compound,measurement,setting,value
CC[C@@]1(O)C[C@H](O[C@H]2C[C@H](NC)[C@H](O[C@H]3C[C@H](O)[C@H](O)[C@H](C)O3)[C@H](C)O2)c2c(cc3c(c2O)C(=O)c2c(O)ccc(O)c2C3=O)[C@H]1C(=O)OC [SCHAUNARDIMYCIN],Activity,[1],0.7 g
same,Activity,[2],2.5 g
same,Activity,[3],3.2 g
same,weight gain,[4],2.7 g
same,weight gain,[5],2.8 g
same,weight gain,[6],2.8 g
same,weight gain,[7],2.5 g
same,Activity,[8],1.6 g
same,Activity,[9],2.8 g
same,weight gain,[10],3 g
same,weight gain,[11],3.5 g
same,weight gain,[12],2.6 g
same,weight gain,[13],2.6 g
same,Activity,[14],Active
same,Activity,[15],Active
same,Activity,[16],Active
same,Activity,[17],Active
same,Activity,[18],Active
same,Activity,[19],Active
same,Activity,[20],Active
same,Activity,[21],Active
same,Activity,[22],Active
same,Activity,[23],Active
same,Activity,[24],Active
same,Activity,[25],Active
same,Activity,[26],Active
same,Activity,[27],Active
same,T/C,[28],117%

# — ChEMBL document CHEMBL1148995, “Antitumor agents from bohemic acid complex, VI. Schaunardimycin” (J Nat Prod, 1984)
